# Where two headings read alike, the source gives them in different places.
# Assays:
# [1] = target: T1, SARS-CoV-2 PLpro (nsp3 1564–1878) (Severe acute respiratory syndrome coronavirus 2, UniProt P0DTD1); test: biochemical; design: FRET-quenched peptide (Pro3) cleavage by PLpro, 10 min pre-incubation, slope over 20 min, normalised to no-compound control; settings: low concentration screen, read-out: % of control remaining
# [2] = target: T1, SARS-CoV-2 PLpro (nsp3 1564–1878); test: biochemical; design: FRET-quenched peptide (Pro3) cleavage by PLpro, 10 min pre-incubation, slope over 20 min, normalised to no-compound control; settings: high concentration screen, read-out: % of control remaining
structure (smiles),measurement,setting,value
CC(C)(C)OC(=O)CN(Cc1ccc(Cl)cc1)Cc1ccc([N+](=O)[O-])s1 [GSK4112],remaining activity at 1.25 µM,[1]; Well no.=5910,97.7%
same,remaining activity at 3.75 µM,[2]; Well no.=5910,96%
COc1ccc(S(=O)(=O)Nc2c(C)cc(C)cc2C)cc1 [GSK137647A],remaining activity at 1.25 µM,[1]; Well no.=7757,103%
same,remaining activity at 3.75 µM,[2]; Well no.=7757,103%
COc1cccc(Nc2c(C(N)=O)cnc3c(C)cc(S(=O)(=O)c4cccc(C(=O)N(C)C)c4)cc23)c1 [GSK256066],remaining activity at 1.25 µM,[1]; Well no.=5300,95.5%
same,remaining activity at 3.75 µM,[2]; Well no.=5300,98.4%
C[C@@H](Oc1cc(-n2cnc3ccc(CN4CCN(C)CC4)cc32)sc1C(N)=O)c1ccccc1C(F)(F)F [GSK461364],remaining activity at 1.25 µM,[1]; Well no.=5146,102%
same,remaining activity at 3.75 µM,[2]; Well no.=5146,103%
O=C(/C=C/c1ccc(Cl)cc1)N1CCC2(CC1)CN(Cc1ccc(Cl)c(Cl)c1)C(=O)O2 [GSK682753A],remaining activity at 1.25 µM,[1]; Well no.=7054,107%
same,remaining activity at 3.75 µM,[2]; Well no.=7054,101%
CCn1c(-c2nonc2N)nc2c(C#CC(C)(C)O)ncc(OC[C@H]3CCCNC3)c21 [GSK690693],remaining activity at 1.25 µM,[1]; Well no.=3041,97.7%
same,remaining activity at 3.75 µM,[2]; Well no.=3041,94.4%
O=C1NC(=O)/C(=C/c2ccc3nccc(-c4ccncc4)c3c2)S1 [GSK1059615],remaining activity at 1.25 µM,[1]; Well no.=5191,104%
same,remaining activity at 3.75 µM,[2]; Well no.=5191,99.2%
CCn1cc(-c2ccnc3[nH]c(-c4cccc(CN(C)C)c4)cc23)c(-c2ccc(NC(=O)N(C)C)cc2)n1 [GSK1070916],remaining activity at 1.25 µM,[1]; Well no.=5031,101%
same,remaining activity at 3.75 µM,[2]; Well no.=5031,99.8%
CC(C)c1noc(N2CCC(COc3ccc(-c4ccc(S(C)(=O)=O)cc4)nc3)CC2)n1 [GSK1292263],remaining activity at 1.25 µM,[1]; Well no.=5106,93.1%
same,remaining activity at 1.25 µM,[1]; Well no.=8539,105%
same,remaining activity at 3.75 µM,[2]; Well no.=5106,97.1%
same,remaining activity at 3.75 µM,[2]; Well no.=8539,104%
CNC(=O)c1c(F)cccc1Nc1nc(Nc2cc3c(ccn3C(=O)CN(C)C)cc2OC)nc2[nH]ccc12 [GSK1838705A],remaining activity at 1.25 µM,[1]; Well no.=5310,98%
same,remaining activity at 3.75 µM,[2]; Well no.=5310,92%
CCc1cc(Nc2nccc(-c3c(-c4ccc(OC)c(C(=O)Nc5c(F)cccc5F)c4)nc4ccccn34)n2)c(OC)cc1N1CCC(N2CCN(S(C)(=O)=O)CC2)CC1 [GSK1904529A],remaining activity at 1.25 µM,[1]; Well no.=5013,89.7%
same,remaining activity at 3.75 µM,[2]; Well no.=5013,89.5%
COc1ncc(-c2ccc3nccc(-c4ccnnc4)c3c2)cc1NS(=O)(=O)c1ccc(F)cc1F [GSK2126458],remaining activity at 1.25 µM,[1]; Well no.=5308,95.7%
same,remaining activity at 3.75 µM,[2]; Well no.=5308,94.1%
CNc1nc(-c2ccc3c(N)n[nH]c3c2)cc(N2C[C@@H](C(=O)NC3CCCCC3)CC[C@H]2C)n1 [GSK2334470],remaining activity at 1.25 µM,[1]; Well no.=5464,94.9%
same,remaining activity at 3.75 µM,[2]; Well no.=5464,101%
Cc1c(Cn2c(C)nc3c(C(=O)O)cc(N4CCOCC4)cc32)cccc1C(F)(F)F [GSK2636771],remaining activity at 1.25 µM,[1]; Well no.=5178,93.1%
same,remaining activity at 3.75 µM,[2]; Well no.=5178,96.9%
CCc1ccc(N(CC(C)C)S(=O)(=O)c2ccc(OCC3CCOCC3)c(CO)c2)cc1 [GSK2981278],remaining activity at 1.25 µM,[1]; Well no.=8561,105%
same,remaining activity at 3.75 µM,[2]; Well no.=8561,101%
CN1C(=O)[C@@H](NC(=O)c2n[nH]c(Cc3ccccc3)n2)COc2ccccc21 [GSK2982772],remaining activity at 1.25 µM,[1]; Well no.=7074,96.7%
same,remaining activity at 3.75 µM,[2]; Well no.=7074,95.1%
"O=C(O)c1ccc(-c2c[nH]c3ncc(-c4ccccc4)cc23)cc1C1CCCC1 [GSK 650394 - 2-Cyclopentyl-4-(5-phenyl-1H-pyrrolo[2,3-b]pyridin-3-yl-benzoic acid]",remaining activity at 1.25 µM,[1]; Well no.=2676,96.9%
same,remaining activity at 3.75 µM,[2]; Well no.=2676,99.7%
CN1C(=O)[C@@H](NC(=O)c2cc(Cc3ccccc3)on2)COc2ccccc21 [GSK'481],remaining activity at 1.25 µM,[1]; Well no.=6534,104%
same,remaining activity at 3.75 µM,[2]; Well no.=6534,98.7%
"Cn1c(O)c(-c2[nH]c3ccccc3c2N=O)c2ccc(Br)cc21 [GSK-3 Inhibitor IX, Control, MeBIO]",remaining activity at 1.25 µM,[1]; Well no.=2427,106%
same,remaining activity at 3.75 µM,[2]; Well no.=2427,108%
O=Nc1c(-c2c(O)[nH]c3cc(Br)ccc23)[nH]c2ccccc12 [GSK-3 Inhibitor IX],remaining activity at 1.25 µM,[1]; Well no.=2466,95.8%
same,remaining activity at 3.75 µM,[2]; Well no.=2466,98.6%
Cc1cc(Nc2nc(-c3ccccc3)nc3ccccc23)n[nH]1 [GSK-3 Inhibitor XIII],remaining activity at 1.25 µM,[1]; Well no.=2502,94.8%
same,remaining activity at 3.75 µM,[2]; Well no.=2502,96.8%
CC(=O)O/N=C1/C(c2c(O)[nH]c3cc(Br)ccc23)=Nc2ccccc21 [GSK-3 Inhibitor X],remaining activity at 1.25 µM,[1]; Well no.=2468,101%
same,remaining activity at 3.75 µM,[2]; Well no.=2468,105%
Cn1sc(=O)n(Cc2ccccc2)c1=O [GSK-3b Inhibitor I],remaining activity at 1.25 µM,[1]; Well no.=2460,106%
same,remaining activity at 3.75 µM,[2]; Well no.=2460,108%
O=C1NC(=O)C(c2cn(CCCO)c3ncccc23)=C1c1cnccn1 [GSK-3b Inhibitor XI],remaining activity at 1.25 µM,[1]; Well no.=2470,101%
same,remaining activity at 3.75 µM,[2]; Well no.=2470,102%
CC(C)S(=O)(=O)c1ccc2nccc(Nc3ccc4scnc4c3)c2c1 [GSK-872],remaining activity at 1.25 µM,[1]; Well no.=6584,96.3%
same,remaining activity at 3.75 µM,[2]; Well no.=6584,108%
CCOC(=O)CCNc1cc(N2CCc3ccccc3CC2)nc(-c2ccccn2)n1 [GSK-J4],remaining activity at 1.25 µM,[1]; Well no.=5779,106%
same,remaining activity at 3.75 µM,[2]; Well no.=5779,106%
c1ccc(-c2n[nH]c3c2oc2ccccc23)cc1 [GTP-14564],remaining activity at 1.25 µM,[1]; Well no.=2417,104%
same,remaining activity at 3.75 µM,[2]; Well no.=2417,105%
Cc1cc(SCc2sc(-c3ccc(C(F)(F)F)c(F)c3)nc2C)ccc1OCC(=O)O [GW0742],remaining activity at 1.25 µM,[1]; Well no.=5214,100%
same,remaining activity at 3.75 µM,[2]; Well no.=5214,98.5%
CN(CCOc1ccc(C[C@H](Nc2ccccc2C(=O)c2ccccc2)C(=O)O)cc1)c1ccccn1 [GW1929],remaining activity at 1.25 µM,[1]; Well no.=8120,97.1%
same,remaining activity at 3.75 µM,[2]; Well no.=477,96.6%
same,remaining activity at 3.75 µM,[2]; Well no.=8120,94.2%
CN(C)c1cc2c(Nc3ccc4c(cnn4Cc4ccccc4)c3)ncnc2cn1 [GW2974],remaining activity at 1.25 µM,[1]; Well no.=523,103%
same,remaining activity at 3.75 µM,[2]; Well no.=523,100%
CC(C)c1onc(-c2c(Cl)cccc2Cl)c1COc1ccc(/C=C/c2cccc(C(=O)O)c2)c(Cl)c1 [GW4064],remaining activity at 1.25 µM,[1]; Well no.=5314,101%
same,remaining activity at 3.75 µM,[2]; Well no.=5314,98.2%
O=C1Nc2ccc(I)cc2/C1=C/c1cc(Br)c(O)c(Br)c1 [GW5074],remaining activity at 1.25 µM,[1]; Well no.=525,97.2%
same,remaining activity at 3.75 µM,[2]; Well no.=525,96.1%
CC(C)(Sc1ccc(CCN(CCCCC2CCCCC2)C(=O)NC2CCCCC2)cc1)C(=O)O [GW7647],remaining activity at 1.25 µM,[1]; Well no.=621,95.2%
same,remaining activity at 3.75 µM,[2]; Well no.=621,96.3%
O=C(O)CCc1ccc(NCc2cccc(Oc3ccccc3)c2)cc1 [GW9508],remaining activity at 1.25 µM,[1]; Well no.=5182,103%
same,remaining activity at 1.25 µM,[1]; Well no.=8531,97.9%
same,remaining activity at 3.75 µM,[2]; Well no.=5182,99.8%
same,remaining activity at 3.75 µM,[2]; Well no.=8531,98.8%
